Earlier results on one molecule are cited in US20250025455A1, “CONTROLLED-RELEASE NICOTINE CHEWING GUM” (Altria Client Services LLC, priority 2023, published 2025).

For this data set the following is noted: free base (non-protonated) nicotine.

For `CN1CCCC1c1cccnc1` (stereo not shown) [Free-base nicotine, 3-(1-methyl-2-pyrrolidinyl) pyridine], the pKa value entry was “about 8”.
